From patent US11208386B2, “Inhibitors of protein arginine deiminases (PADs) and methods of preparation and use thereof” (University of Massachusetts, priority 2016, dated 2021) come the findings set out here.

The kinact/KI is the maximal inactivation rate divided by the concentration that gives half of it.

Type in all cases: biochemical
In one experiment the target is T1, PAD1 (Homo sapiens, UniProt Q9ULC6).
T1 construct: made in house
T1 sequence (Q9ULC6 1-663): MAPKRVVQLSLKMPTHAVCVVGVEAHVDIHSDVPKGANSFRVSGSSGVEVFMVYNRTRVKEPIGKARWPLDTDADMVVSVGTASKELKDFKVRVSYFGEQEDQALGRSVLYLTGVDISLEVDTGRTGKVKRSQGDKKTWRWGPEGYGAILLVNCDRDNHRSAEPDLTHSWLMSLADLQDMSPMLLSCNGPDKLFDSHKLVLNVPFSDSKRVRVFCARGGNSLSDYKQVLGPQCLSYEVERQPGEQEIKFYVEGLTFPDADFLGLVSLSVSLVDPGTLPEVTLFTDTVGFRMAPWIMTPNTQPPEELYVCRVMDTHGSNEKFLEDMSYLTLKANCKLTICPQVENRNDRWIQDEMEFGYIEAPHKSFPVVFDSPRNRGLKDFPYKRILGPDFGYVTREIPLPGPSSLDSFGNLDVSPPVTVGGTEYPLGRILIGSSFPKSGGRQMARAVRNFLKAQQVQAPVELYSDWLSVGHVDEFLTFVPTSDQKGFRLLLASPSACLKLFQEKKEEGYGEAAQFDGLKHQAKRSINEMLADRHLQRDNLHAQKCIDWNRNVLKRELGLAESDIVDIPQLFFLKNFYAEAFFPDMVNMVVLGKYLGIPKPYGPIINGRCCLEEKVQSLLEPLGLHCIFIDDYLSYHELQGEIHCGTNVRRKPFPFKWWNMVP
The experiment is described as follows: Inactivation kinetics, PAD1. The note with it: for kinact/KI: a: single kobs determined, b: from a linear fit; for Fold PAD1 Selectivity: kinact/KI relative to least inhibited isozyme (1.0). In short, it runs like this: (§1)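 PAD1, 2 or 4 (2.0 μM) or PAD3 (5.0 μM) preincubated at 37 °C with varying inhibitor in 50 mM HEPES, 10 mM CaCl2, 2 mM DTT, pH 7.6. Timed aliquots assayed 15 min with 10 mM BAEE (BAA for PAD3); citrulline quantified by COLDER.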

The target in the next experiment is T2, PAD3 (Homo sapiens, UniProt Q9ULW8).
T2 construct: made in house
T2 sequence (Q9ULW8 1-664): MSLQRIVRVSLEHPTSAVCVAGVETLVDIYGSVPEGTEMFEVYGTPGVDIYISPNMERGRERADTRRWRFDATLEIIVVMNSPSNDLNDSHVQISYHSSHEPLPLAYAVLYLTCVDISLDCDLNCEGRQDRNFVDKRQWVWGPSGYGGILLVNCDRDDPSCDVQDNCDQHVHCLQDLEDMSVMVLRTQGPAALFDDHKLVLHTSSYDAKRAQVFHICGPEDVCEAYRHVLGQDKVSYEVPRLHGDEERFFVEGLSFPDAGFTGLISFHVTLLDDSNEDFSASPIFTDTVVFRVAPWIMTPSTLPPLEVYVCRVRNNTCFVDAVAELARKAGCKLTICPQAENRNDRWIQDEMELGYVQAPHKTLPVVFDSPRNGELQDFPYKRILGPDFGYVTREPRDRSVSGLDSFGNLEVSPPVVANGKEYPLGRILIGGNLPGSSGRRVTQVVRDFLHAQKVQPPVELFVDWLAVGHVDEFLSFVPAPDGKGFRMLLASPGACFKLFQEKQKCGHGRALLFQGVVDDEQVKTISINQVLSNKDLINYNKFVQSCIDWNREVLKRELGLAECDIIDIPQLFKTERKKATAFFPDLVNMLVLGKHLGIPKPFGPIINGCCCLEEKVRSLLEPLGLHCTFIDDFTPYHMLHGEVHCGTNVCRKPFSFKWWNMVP
The experiment is described as follows: Inactivation kinetics, PAD3. As to conditions: for kinact/KI: a: single kobs determined; for Fold PAD3 Selectivity: kinact/KI relative to least inhibited isozyme (1.0). The essentials: as §1

The target in another experiment is T3, PAD2 (Homo sapiens, UniProt Q9Y2J8).
T3 construct: made in house
Put plainly: Inactivation kinetics, PAD2. As to conditions: for kinact/KI: a: single kobs determined, b: from a linear fit, other footnotes: from kinact and KI; for Fold PAD2 Selectivity: kinact/KI relative to least inhibited isozyme (1.0). In short, it runs like this:
as §1

A further experiment has as its target T4, PAD4 (Homo sapiens, UniProt Q9UM07).
T4 construct: made in house
The experiment is described as follows: Inactivation kinetics, PAD4. The note with it: for kinact/KI: a: single kobs determined, b: from a linear fit; for Fold PAD4 Selectivity: kinact/KI relative to least inhibited isozyme (1.0). The essentials:
as §1

T4 sequence (Q9UM07 whole entry): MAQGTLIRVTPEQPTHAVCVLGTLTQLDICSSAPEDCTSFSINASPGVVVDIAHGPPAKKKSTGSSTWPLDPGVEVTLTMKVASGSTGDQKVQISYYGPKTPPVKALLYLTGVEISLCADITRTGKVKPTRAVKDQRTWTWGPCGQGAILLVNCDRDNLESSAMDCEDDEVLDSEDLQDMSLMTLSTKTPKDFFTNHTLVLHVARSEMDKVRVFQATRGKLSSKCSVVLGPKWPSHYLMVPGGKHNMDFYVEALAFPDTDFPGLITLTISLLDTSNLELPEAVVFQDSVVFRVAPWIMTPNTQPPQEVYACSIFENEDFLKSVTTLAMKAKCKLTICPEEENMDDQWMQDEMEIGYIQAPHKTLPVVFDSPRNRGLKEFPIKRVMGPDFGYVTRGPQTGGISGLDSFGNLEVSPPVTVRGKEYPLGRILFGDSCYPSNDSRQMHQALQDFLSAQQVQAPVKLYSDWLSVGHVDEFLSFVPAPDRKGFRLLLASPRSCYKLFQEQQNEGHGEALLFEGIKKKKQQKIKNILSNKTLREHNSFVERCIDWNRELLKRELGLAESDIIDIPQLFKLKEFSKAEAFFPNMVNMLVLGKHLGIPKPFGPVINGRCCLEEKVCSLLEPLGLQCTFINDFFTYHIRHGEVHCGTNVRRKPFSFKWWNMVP
T3 sequence (Q9Y2J8 whole entry): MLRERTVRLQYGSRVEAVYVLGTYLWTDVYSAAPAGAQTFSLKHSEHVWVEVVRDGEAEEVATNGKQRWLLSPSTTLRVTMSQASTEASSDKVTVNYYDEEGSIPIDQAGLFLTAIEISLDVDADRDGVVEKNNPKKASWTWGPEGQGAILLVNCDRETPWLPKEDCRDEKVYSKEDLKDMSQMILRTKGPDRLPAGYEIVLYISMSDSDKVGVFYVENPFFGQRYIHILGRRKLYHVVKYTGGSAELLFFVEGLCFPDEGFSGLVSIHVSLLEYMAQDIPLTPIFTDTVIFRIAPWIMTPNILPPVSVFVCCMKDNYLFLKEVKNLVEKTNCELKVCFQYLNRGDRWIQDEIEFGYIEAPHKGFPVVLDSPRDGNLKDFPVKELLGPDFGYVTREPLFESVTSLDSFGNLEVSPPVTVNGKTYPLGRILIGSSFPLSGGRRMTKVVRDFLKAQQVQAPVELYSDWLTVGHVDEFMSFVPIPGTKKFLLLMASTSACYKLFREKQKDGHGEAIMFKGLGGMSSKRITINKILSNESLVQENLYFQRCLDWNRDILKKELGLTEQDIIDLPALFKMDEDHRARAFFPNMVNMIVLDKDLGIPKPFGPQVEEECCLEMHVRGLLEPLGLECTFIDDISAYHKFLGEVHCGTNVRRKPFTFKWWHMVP

Consider `COc1ccc2c(c1)nc([C@H](CCCNC(=N)CCl)NC(=O)c1cccc3c1C(=O)NC3)n2C` [Compound 7p, N1-(3-oxoisoindoline)benzoyl-N5-(2-chloro-1-iminoethyl)-1-(5-methoxy-1-methyl-benzo[d]imidazol-2-yl)-L-ornithine], for which, at PAD1, the kinact/KI is 2210 M⁻¹ s⁻¹ and the “Fold PAD1 Selectivity” value was 25 fold. Also, on PAD3, the kinact/KI is 218 M⁻¹ s⁻¹ and the “Fold PAD3 Selectivity” value turned out to be 2.4 fold. Further, at PAD2, the kinact/KI was 908 M⁻¹ s⁻¹ and the “Fold PAD2 Selectivity” value is 10 fold. Moreover, on PAD4, the kinact/KI was 90.2 M⁻¹ s⁻¹ and the “Fold PAD4 Selectivity” value is listed as 1.0 fold.
For `CCn1c([C@H](CCCNC(=N)CF)NC(=O)c2cccc3c2C(=O)NC3)nc2c(OC)cccc21` [Compound 7q, N1-(3-oxoisoindoline)benzoyl-N5-(2-fluoro-1-iminoethyl)-1-(4-methoxy-1-ethyl-benzo[d]imidazol-2-yl)-L-ornithine], at PAD1, the kinact/KI is 998 M⁻¹ s⁻¹ and the “Fold PAD1 Selectivity” value is on record as 38 fold. Moreover, on PAD3, the kinact/KI is 26.7 M⁻¹ s⁻¹ and the “Fold PAD3 Selectivity” value was found to be 1.0 fold. At PAD2, the kinact/KI is 845 M⁻¹ s⁻¹ and the “Fold PAD2 Selectivity” value is recorded as 32 fold. At PAD4, the kinact/KI is 26.3 M⁻¹ s⁻¹ and the “Fold PAD4 Selectivity” value came out at 1.0 fold.
As for `CCn1c([C@H](CCCNC(=N)CCl)NC(=O)c2cccc3c2C(=O)NC3)nc2c(OC)cccc21` [Compound 7r, N1-(3-oxoisoindoline)benzoyl-N5-(2-chloro-1-iminoethyl)-1-(4-methoxy-1-ethyl-benzo[d]imidazol-2-yl)-L-ornithine], at PAD1, the kinact/KI is 1790 M⁻¹ s⁻¹ and the “Fold PAD1 Selectivity” value is 50 fold. Further, on PAD3, the kinact/KI is 103 M⁻¹ s⁻¹ and the “Fold PAD3 Selectivity” value stood at 2.9 fold. Further, at PAD2, the kinact/KI was 657 M⁻¹ s⁻¹ and the “Fold PAD2 Selectivity” value worked out at 19 fold. In addition, on PAD4, the kinact/KI was 35.5 M⁻¹ s⁻¹ and the “Fold PAD4 Selectivity” value came out at 1.0 fold.
For `COc1ccc2[nH]c([C@H](CCCNC(=N)CF)NC(=O)c3cccc4c3C(=O)NC4)nc2c1` [Compound 7s, N1-(3-oxoisoindoline)benzoyl-N5-(2-fluoro-1-iminoethyl)-1-(5-methoxy-1H-benzo[d]imidazol-2-yl)-L-ornithine], on PAD1, the kinact/KI was 974 M⁻¹ s⁻¹ and the “Fold PAD1 Selectivity” value is 13 fold. Further, at PAD3, the kinact/KI is 76.2 M⁻¹ s⁻¹ and the “Fold PAD3 Selectivity” value is on record as 1.0 fold. At PAD2, the kinact/KI was 415 M⁻¹ s⁻¹ and the “Fold PAD2 Selectivity” value amounted to 5.4 fold. Further, at PAD4, the kinact/KI was 264 M⁻¹ s⁻¹ and the “Fold PAD4 Selectivity” value is recorded as 3.5 fold.
On to `COc1ccc2[nH]c([C@H](CCCNC(=N)CCl)NC(=O)c3cccc4c3C(=O)NC4)nc2c1` [Compound 7t, N1-(3-oxoisoindoline)benzoyl-N5-(2-chloro-1-iminoethyl)-1-(5-methoxy-1H-benzo[d]imidazol-2-yl)-L-ornithine], for which, on PAD1, the kinact/KI was 2130 M⁻¹ s⁻¹ and the “Fold PAD1 Selectivity” value is recorded as 7.3 fold. Besides, at PAD3, the kinact/KI was 291 M⁻¹ s⁻¹ and the “Fold PAD3 Selectivity” value stood at 1.0 fold. For the same compound, on PAD2, the kinact/KI is 1000 M⁻¹ s⁻¹ and the “Fold PAD2 Selectivity” value is on record as 3.5 fold. On PAD4, the kinact/KI was 630 M⁻¹ s⁻¹ and the “Fold PAD4 Selectivity” value came to 2.2 fold.
Turning to `CCn1c([C@H](CCCNC(=N)CF)NC(=O)c2cccc3c2C(=O)NC3)nc2cc(OC)ccc21` [Compound 7u, N1-(3-oxoisoindoline)benzoyl-N5-(2-fluoro-1-iminoethyl)-1-(5-methoxy-1-ethyl-benzo[d]imidazol-2-yl)-L-ornithine], on PAD1, the kinact/KI is 316 M⁻¹ s⁻¹ and the “Fold PAD1 Selectivity” value is recorded as 24 fold. In addition, on PAD3, the kinact/KI is 33 M⁻¹ s⁻¹ and the “Fold PAD3 Selectivity” value is on record as 2.5 fold. Also, on PAD2, the kinact/KI was 658 M⁻¹ s⁻¹ and the “Fold PAD2 Selectivity” value came out at 50 fold. Besides, on PAD4, the inactivation efficiency (kinact/KI) was 13.2 M⁻¹ s⁻¹ and the “Fold PAD4 Selectivity” value was 1.0 fold.
As for `CCn1c([C@H](CCCNC(=N)CCl)NC(=O)c2cccc3c2C(=O)NC3)nc2cc(OC)ccc21` [Compound 7v, N1-(3-oxoisoindoline)benzol-N5-(2-chloro-1-iminoethyl)-1-(5-methoxy-1-ethyl-benzo[d]imidazol-2-yl)-L-ornithine], at PAD1, the kinact/KI is 1010 M⁻¹ s⁻¹ and the “Fold PAD1 Selectivity” value stood at 21 fold. In addition, on PAD3, the kinact/KI is 214 M⁻¹ s⁻¹ and the “Fold PAD3 Selectivity” value came out at 4.4 fold. Further, on PAD2, the kinact/KI was 780 M⁻¹ s⁻¹ and the “Fold PAD2 Selectivity” value is 16 fold. Besides, on PAD4, the kinact/KI is 48.8 M⁻¹ s⁻¹ and the “Fold PAD4 Selectivity” value is reported as 1.0 fold.
With `CCN1Cc2cccc(C(=O)N[C@@H](CCCNC(=N)CF)c3nc4ccccc4[nH]3)c2C1=O` [Compound 8a, N1-(2-ethyl-3-oxoisoindoline)benzol-N5-(2-fluoro-1-iminoethyl)-1-(1H-benzo[d]imidazol-2-yl)-L-ornithine], at PAD1, the kinact/KI was 807 M⁻¹ s⁻¹ and the “Fold PAD1 Selectivity” value was found to be 3.4 fold. At PAD3, the kinact/KI is 248 M⁻¹ s⁻¹ and the “Fold PAD3 Selectivity” value stood at 1.0 fold. At PAD2, the kinact/KI is 240 M⁻¹ s⁻¹ and the “Fold PAD2 Selectivity” value is reported as 1.0 fold. In addition, at PAD4, the kinact/KI was 248 M⁻¹ s⁻¹ and the “Fold PAD4 Selectivity” value is given as 1.0 fold.
As for `CCN1Cc2cccc(C(=O)N[C@@H](CCCNC(=N)CCl)c3nc4ccccc4[nH]3)c2C1=O` [Compound 8b, N1-(2-ethyl-3-oxoisoindoline)benzol-N5-(2-chloro-1-iminoethyl)-1-(1H-benzo[d]imidazol-2-yl)-L-ornithine], at PAD1, the kinact/KI is 2530 M⁻¹ s⁻¹ and the “Fold PAD1 Selectivity” value stood at 4.3 fold. Further, at PAD3, the kinact/KI is 583 M⁻¹ s⁻¹ and the “Fold PAD3 Selectivity” value came out at 1.0 fold. On PAD2, the kinact/KI is 888 M⁻¹ s⁻¹ and the “Fold PAD2 Selectivity” value is on record as 1.5 fold. Besides, at PAD4, the kinact/KI is 810 M⁻¹ s⁻¹ and the “Fold PAD4 Selectivity” value was found to be 1.4 fold.
Take `CCN1Cc2cccc(C(=O)N[C@@H](CCCNC(=N)CF)c3nc4ccccc4n3C)c2C1=O` [Compound 8c, N1-(2-ethyl-3-oxoisoindoline)benzoyl-N5-(2-fluoro-1-iminoethyl)-1-(1-methyl-benzo[d]imidazol-2-yl)-L-ornithine]: on PAD1, the kinact/KI is 308 M⁻¹ s⁻¹ and the “Fold PAD1 Selectivity” value is on record as 6.1 fold. In addition, at PAD3, the kinact/KI is 95.8 M⁻¹ s⁻¹ and the “Fold PAD3 Selectivity” value is 1.9 fold. Moreover, at PAD2, the kinact/KI was 546 M⁻¹ s⁻¹ and the “Fold PAD2 Selectivity” value is on record as 11 fold. Moreover, on PAD4, the kinact/KI was 50.5 M⁻¹ s⁻¹ and the “Fold PAD4 Selectivity” value is listed as 1.0 fold.
Take `CCN1Cc2cccc(C(=O)N[C@@H](CCCNC(=N)CCl)c3nc4ccccc4n3C)c2C1=O` [Compound 8d, N1-(2-ethyl-3-oxoisoindoline)benzoyl-N5-(2-chloro-1-iminoethyl)-1-(1-methyl-benzo[d]imidazol-2-yl)-L-ornithine]: on PAD1, the kinact/KI was 1320 M⁻¹ s⁻¹ and the “Fold PAD1 Selectivity” value was 21 fold. In addition, on PAD3, the inactivation efficiency (kinact/KI) was 62.8 M⁻¹ s⁻¹ and the “Fold PAD3 Selectivity” value worked out at 1.0 fold. Moreover, at PAD2, the kinact/KI is 1190 M⁻¹ s⁻¹ and the “Fold PAD2 Selectivity” value is 19 fold. Further, at PAD4, the kinact/KI was 75.7 M⁻¹ s⁻¹ and the “Fold PAD4 Selectivity” value turned out to be 1.2 fold.
